The assay has as its target T1, phosphatase ABI1 via the co-regulator RCAR11/PYR1 (Arabidopsis thaliana, UniProt O49686+P49597).
T1 sequence (O49686 1-191): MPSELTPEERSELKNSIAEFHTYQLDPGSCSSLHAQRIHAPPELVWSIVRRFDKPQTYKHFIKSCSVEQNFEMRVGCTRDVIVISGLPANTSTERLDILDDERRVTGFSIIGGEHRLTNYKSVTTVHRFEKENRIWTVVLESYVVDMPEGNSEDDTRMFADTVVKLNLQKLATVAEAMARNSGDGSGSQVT
T1 sequence (P49597 1-434): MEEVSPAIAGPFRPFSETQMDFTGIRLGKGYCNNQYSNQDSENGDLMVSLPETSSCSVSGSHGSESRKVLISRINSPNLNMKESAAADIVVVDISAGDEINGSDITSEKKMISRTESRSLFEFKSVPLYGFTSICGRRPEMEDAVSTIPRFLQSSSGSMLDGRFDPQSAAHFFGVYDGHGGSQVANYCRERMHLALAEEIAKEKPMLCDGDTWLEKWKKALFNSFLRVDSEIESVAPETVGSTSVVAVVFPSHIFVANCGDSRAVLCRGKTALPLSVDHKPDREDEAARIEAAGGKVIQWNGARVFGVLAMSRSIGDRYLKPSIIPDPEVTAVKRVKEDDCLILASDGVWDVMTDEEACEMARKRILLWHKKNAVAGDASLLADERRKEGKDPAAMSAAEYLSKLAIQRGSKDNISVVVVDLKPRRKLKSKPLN
Nature of the assay: In vitro assay: inhibition of the phosphatase ABI1 via the co-regulator RCAR11/PYR1, MUP dephosphorylation, fluorescence. The assay is classed as biochemical. Details: inhibition: dose or concentration left out as unconfirmed. The settings on record: for ABI1 inhibition: concentration of 5 mM of the substance in a solution of DMSO and water; for inhibition: read-out: ABI1 inhibition. The text has this:
Effects of the phytohormone abscisic acid (ABA) on the behaviour of plants under abiotic stress and the mechanism of action of ABA are described in the literature (cf. Abrams et al, WO97/23441, Cutler, Park et al. Science, 2009, 324, 1068; Grill et al. Science, 2009, 324, 1064; Tanokura et al. Biophysics, 2011, 7, 123; Schroeder et al. Plant J. 2010, 61, 290). Therefore, it is possible with the aid of a suitable in vitro test system to derive a correlation between the action of ABA and the stress response of a plant under abiotic stress. Under drought stress, plants form the phytohormone abscisic acid (ABA). This binds, along with a co-regulator (Regulatory Component of ABA-Receptor=RCAR according to Grill et al. Science, 2009, 324, 1064 or PYR/PYL according to Cutler et al. Science, 2009, 324, 1068), to a phosphatase (e.g. ABI1, a type 2C protein phosphatase, also abbreviated to PP2C) and inhibits its activity. As a result, a “downstream” kinase (e.g. SnRK2) is no longer dephosphorylated. This kinase, which is thus active, via phosphorylation of transcription factors (e.g. AREB/ABF, vgl. Yoshida et al., Plant J. 2010, 61, 672), switches on a genetic protection programme to increase drought stress tolerance.
The assay described hereinafter utilizes the inhibition of the phosphatase ABI1 via the co-regulator RCAR11/PYR1 aus Arabidopsis thaliana.
For the determination of activity, the dephosphorylation of 4-methylumbelliferyl phosphate (MUP) was measured at 460 nm. The in vitro assay was conducted in Greiner 384-well PS microplates F-well, using two controls: a) dimethyl sulphoxide (DMSO) 0.5% (f.c.) and b) 5 μM (f.c.) abscisic acid (ABA). […] The substance solution thus obtained, if necessary, was stirred with esterase from porcine liver (EC 3.1.1.1) at room temperature for 3 h and centrifuged at 4000 rpm for 30 min. A total volume of 45 μl was introduced into each cavity of the microplate, having the following composition: • 1) 5 μl of substance solution, i.e. a) DMSO 5% or b) abscisic acid solution or c) the corresponding example compound of the general formula (I) dissolved in 5% DMSO. • 2) 20 μl of enzyme buffer mix, composed of a) 40% by vol. of enzyme buffer (10 ml contain equal proportions by volume of 500 mM Tris-HCl pH8, 500 mM NaCl, 3.33 mM MnCl2, 40 mM dithiothreitol (DTT)), b) 4% by vol. of ABI1 dilution (protein stock solution was diluted so as to give, after addition, a final concentration in the assay of 0.15 μg ABI1/well), c) 4% by vol. of RCAR11 dilution (enzyme stock was diluted so as to give, on addition of the dilution to the enzyme buffer mix, a final concentration in the assay of 0.30 μg enzyme/well), d) 5% by vol. of Tween20 (1%), e) 47% by vol. H2O bi-dist. • 3) 20 μl of substrate mix, composed of a) 10% by vol. of 500 mM Tris-HCl pH8, b) 10% by vol. of 500 mM NaCl, c) 10% by vol. of 3.33 mM MnCl2, d) 5% by vol. of 25 mM MUP, 5% by vol. of Tween20 (1%), 60% by vol. of H2O bi-dist.
Enzyme buffer mix and substrate mix were made up 5 minutes prior to the addition and warmed to a temperature of 35° C. On completion of pipetting of all the solutions and on completion of mixing, the plate was incubated at 35° C. for 20 minutes. Finally, a relative fluorescence measurement was made at 35° C. with a BMG Labtech “POLARstar Optima” microplate reader using a 340/10 nm excitation filter and a 460 nm emission filter. The efficacy of the compounds of the general formula (I) is reported in the table which follows using abscisic acid (No. 64) as comparative substance according to the following classification: ++++ (inhibition≥90%), +++ (90%>inhibition≥70%), ++ (70%>inhibition≥50%), +(50%>inhibition≥30%).
Effects of selected compounds of the general formula (I) in the above-described in vitro assay at a concentration of 5 mM of the substance of the general formula (I) in question in a solution of DMSO and water: […]

The mark [1] stands for this setting: MUP dephosphorylation, fluorescence 460 nm.

The structures appear in SMILES notation. Where two headings read alike, the source gives them in different places. Where only a bound is given, the exact number is not on record here.

In the case of `CC(C=CC(O)(C(C)C)C1(C#N)CC1)=CC(=O)O` (racemic) [I.2-134], under setting [1], the ABI1 inhibition result was “++++ (inhibition≥90%)”.

On to `CCC(C#CC(O)(c1ccc(C)cc1)C1(C#N)CC1)=CC(=O)OC` (racemic) [I.1-798], for which, under setting [1], the ABI1 inhibition entry is given as “++++ (inhibition≥90%)”.

On to `CC/C(C#CC(O)(c1ccccc1)C1(C#N)CC1)=C/C(=O)OCCOC` (centres unmarked) [I.1-610], for which, under setting [1], the ABI1 inhibition entry was “++++ (inhibition≥90%)”.

Take `COC(=O)C=C(C=CC(O)(C1CCCCC1)C1(C#N)CC1)C(F)(F)F` (racemic) [I.2-581]: under setting [1], the ABI1 inhibition result is “++++ (inhibition≥90%)”.

With `CCCC(C#CC(O)(c1cccc(F)c1)C1(C#N)CC1)=CC(=O)O` (racemic) [I.1-773], the ABI1 inhibition result under setting [1] is given as “+++ (90%>inhibition≥70%)”.

For orientation: inhibition means the change of the read-out against control, counted positive when it falls. Regarding `CCC(CC)C(O)(/C=C/C(=C\C(=O)OC)C(F)(F)F)C1(C#N)CC1` (centres unmarked) [I.2-585, Methyl (2E,4E)-6-(1-cyanocyclopropyl)-7-ethyl-6-hydroxy-3-(trifluoromethyl)nona-2,4-dienoate], the inhibition under setting [1] was over 90%.

In the case of `CCOC(=O)/C=C(/C)C#CC(O)(c1ccccc1)C1(C#N)CC1` (centres unmarked) [I.1.236], the inhibition under setting [1] was over 90%.

For `CCC(=C/C(=O)OC)/C=C/C(O)(C1CCCCC1)C1(C#N)CC1` (centres unmarked) [I.2-579, Methyl (2Z,4E)-6-(1-cyanocyclopropyl)-6-cyclohexyl-3-ethyl-6-hydroxyhexa-2,4-dienoate], the inhibition under setting [1] was over 90%.

As to `CCCOC(=O)/C=C(\C#CC(O)(c1ccc(F)cc1)C1(C#N)CC1)CC` (centres unmarked) [I.1-613], under setting [1], the ABI1 inhibition result was “++++ (inhibition≥90%)”.

For `CCOC(=O)C=C(C#CC(O)(C(CC)CC)C1(C#N)CC1)C(F)(F)F` (racemic) [I.1-723], the ABI1 inhibition entry under setting [1] is on record as “+++ (90%>inhibition≥70%)”.

As for `CCOC(=O)C=C(C)C#CC(O)(c1ccc(C)cc1)C1(C#N)CC1` (racemic) [I.1-822], the ABI1 inhibition entry under setting [1] was “+++ (90%>inhibition≥70%)”.

With `COC(=O)/C=C(\C#CC(O)(c1ccc(F)cc1)C1(C#N)CC1)C(F)(F)F` (centres unmarked) [I.1-520], the ABI1 inhibition entry under setting [1] is “++++ (inhibition≥90%)”.

In the case of `COC(=O)C=C(C#CC(O)(c1cccc(F)c1)C1(C#N)CC1)C(F)(F)F` (racemic) [I.1-782], the ABI1 inhibition result under setting [1] is given as “+++ (90%>inhibition≥70%)”.

As to `CCOC(=O)/C=C(/C)C#CC(C)(O)C1(C#N)CC1` (centres unmarked) [I.1-36], under setting [1], the ABI1 inhibition entry is reported as “+++ (90%>inhibition≥70%)”.

Regarding `CCC(C#CC(O)(c1cccc(F)c1)C1(C#N)CC1)=CC(=O)OC` (racemic) [I.1-768], under setting [1], the ABI1 inhibition entry was “++++ (inhibition≥90%)”.

In the case of `CCC(C#CC(O)(c1ccc(C)cc1)C1(C#N)CC1)=CC(=O)OCCOC` (racemic) [I.1-801], the ABI1 inhibition entry under setting [1] is “++++ (inhibition≥90%)”.

`CCOC(=O)C=C(C#CC(O)(c1ccc(C)cc1)C1(C#N)CC1)C(F)(F)F` (racemic) [I.1-813]: under setting [1], the ABI1 inhibition entry is “+++ (90%>inhibition≥70%)”.

As for `CCOC(=O)C=C(C)C#CC(O)(c1cccc(F)c1)C1(C#N)CC1` (racemic) [I.1-792], the ABI1 inhibition entry under setting [1] is “+++ (90%>inhibition≥70%)”.

For the compound `CC1=CC(=O)CC(C)(C)[C@@]1(O)/C=C/C(C)=C\C(=O)O` [abscisic acid, reference compound], the inhibition is over 90%.

Take `CCCOC(=O)C=C(C#CC(O)(c1ccc(C)cc1)C1(C#N)CC1)C(F)(F)F` (racemic) [I.1-888]: the ABI1 inhibition result under setting [1] was “+++ (90%>inhibition≥70%)”.

Take `COC(=O)/C=C(\C#CC(O)(C1CC1)C1(C#N)CC1)C(F)(F)F` (centres unmarked) [I.1-632]: the ABI1 inhibition result under setting [1] is given as “++++ (inhibition≥90%)”.

Take `COC(=O)/C=C(\C#CC(O)(C1CCCCC1)C1(C#N)CC1)C(F)(F)F` (centres unmarked) [I.1-692]: under setting [1], the ABI1 inhibition result is on record as “+++ (90%>inhibition≥70%)”.

Turning to `CC/C(C#CC(O)(c1ccc(F)cc1)C1(C#N)CC1)=C/C(=O)NC(C)C` (centres unmarked) [I.1-558], the ABI1 inhibition result under setting [1] was “++ (70%>inhibition≥50%)”.

In the case of `CCOC(=O)/C=C(\C#CC(O)(c1ccccc1)C1(C#N)CC1)CC` (centres unmarked) [I.1-203], the ABI1 inhibition result under setting [1] was “++++ (inhibition≥90%)”.

Take `COC(=O)/C=C(\C#CC(O)(c1ccccc1)C1(C#N)CC1)C(F)(F)F` (centres unmarked) [I.1-220]: the ABI1 inhibition entry under setting [1] is listed as “++++ (inhibition≥90%)”.

On to `CCCOC(=O)C=C(C=CC(O)(C1CCCCC1)C1(C#N)CC1)C(F)(F)F` (racemic) [I.2-582], for which the ABI1 inhibition result under setting [1] is reported as “++++ (inhibition≥90%)”.

Turning to `CCOC(=O)C=C(C=CC(O)(C(C)C)C1(C#N)CC1)C1CCCC1` (racemic) [I.2-130], under setting [1], the ABI1 inhibition entry was “+++ (90%>inhibition≥70%)”.

In the case of `CC/C(C#CC(O)(c1ccc(F)cc1)C1(C#N)CC1)=C/C(=O)NC1CC1` (centres unmarked) [I.1-557], under setting [1], the ABI1 inhibition entry is “++ (70%>inhibition≥50%)”.

Regarding `CCOC(=O)C=C(C#CC(O)(c1cccc(F)c1)C1(C#N)CC1)C(F)(F)F` (racemic) [I.1-783], under setting [1], the ABI1 inhibition result is “+++ (90%>inhibition≥70%)”.

The values are drawn from US10322995B2, “Substituted cyano cycloalkyl penta-2,4-dienes, cyano cycloalkyl pent-2-en-4-ynes, cyano heterocyclyl penta-2,4-dienes and cyano heterocyclyl pent-2-en-4-ynes as active substances against abiotic plant stress” (BAYER CROPSCIENCE AKTIENGESELLSCHAFT, priority 2014, dated 2019).
